Data from ChEMBL document CHEMBL1681719, “Synthesis and evaluation of 1,5-diaryl-substituted tetrazoles as novel selective cyclooxygenase-2 (COX-2) inhibitors” (Bioorg Med Chem Lett, 2011).

How the values were obtained:
[1] = Selectivity index ratio of IC50 for ovine COX-1 to IC50 for human recombinant COX-2
[2] = biological target: T1, Prostaglandin G/H synthase 1 (Ovis aries, UniProt P05979); experiment: Inhibition of ovine COX-1 by fluorescence assay
T1 sequence (P05979 whole entry): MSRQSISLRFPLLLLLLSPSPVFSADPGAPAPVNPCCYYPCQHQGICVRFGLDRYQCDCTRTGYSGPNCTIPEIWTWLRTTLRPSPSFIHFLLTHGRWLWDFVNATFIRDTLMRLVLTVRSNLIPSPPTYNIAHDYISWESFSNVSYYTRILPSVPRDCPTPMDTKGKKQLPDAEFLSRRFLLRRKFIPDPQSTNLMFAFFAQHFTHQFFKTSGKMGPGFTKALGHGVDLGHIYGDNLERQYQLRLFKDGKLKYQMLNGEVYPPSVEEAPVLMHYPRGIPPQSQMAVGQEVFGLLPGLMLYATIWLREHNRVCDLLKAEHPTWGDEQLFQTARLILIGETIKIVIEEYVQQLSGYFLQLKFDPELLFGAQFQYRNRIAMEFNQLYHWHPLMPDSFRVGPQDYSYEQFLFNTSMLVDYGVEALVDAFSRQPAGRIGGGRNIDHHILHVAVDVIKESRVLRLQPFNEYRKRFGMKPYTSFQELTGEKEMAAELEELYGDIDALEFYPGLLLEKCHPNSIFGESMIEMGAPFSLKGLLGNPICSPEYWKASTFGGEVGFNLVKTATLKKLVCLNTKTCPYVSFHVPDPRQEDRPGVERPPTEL

[3] = biological target: T2, Prostaglandin G/H synthase 2 (Homo sapiens, UniProt P35354); experiment: Inhibition of human recombinant COX-2 by fluorescence assay
T2 sequence (P35354 whole entry): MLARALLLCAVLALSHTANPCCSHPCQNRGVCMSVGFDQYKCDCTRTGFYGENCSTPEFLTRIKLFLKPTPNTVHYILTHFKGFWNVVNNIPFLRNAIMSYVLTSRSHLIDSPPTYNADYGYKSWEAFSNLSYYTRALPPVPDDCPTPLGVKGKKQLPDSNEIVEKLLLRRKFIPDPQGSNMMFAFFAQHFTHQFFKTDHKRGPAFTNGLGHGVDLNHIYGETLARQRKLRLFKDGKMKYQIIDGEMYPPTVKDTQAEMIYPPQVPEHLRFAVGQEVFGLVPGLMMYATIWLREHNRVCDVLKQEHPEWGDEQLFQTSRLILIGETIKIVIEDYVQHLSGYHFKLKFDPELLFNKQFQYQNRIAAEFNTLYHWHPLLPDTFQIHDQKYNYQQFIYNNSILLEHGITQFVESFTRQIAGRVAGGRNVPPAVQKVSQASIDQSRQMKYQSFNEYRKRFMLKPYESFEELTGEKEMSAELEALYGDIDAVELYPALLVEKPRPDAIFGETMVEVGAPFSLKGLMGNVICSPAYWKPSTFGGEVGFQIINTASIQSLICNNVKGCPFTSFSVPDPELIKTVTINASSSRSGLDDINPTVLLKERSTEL

Compound | Ratio IC50 [1] | IC50 [2] | IC50 [3]
CS(=O)(=O)c1ccc(-c2nnnn2-c2ccccc2)cc1 | 18.5 | 3700 µM | 200 µM
CS(=O)(=O)c1ccc(-c2nnnn2-c2ccc(Cl)cc2)cc1 | 4.5 | 500 µM | 110 µM
COc1ccc(-n2nnnc2-c2ccc(S(C)(=O)=O)cc2)cc1 | 210 | 420 µM | 2 µM

Continued, values first:

Ratio IC50 [1] | IC50 [2] | IC50 [3] | Compound
237 | 640 µM | 2.7 µM | CS(=O)(=O)c1ccc(-c2nnnn2-c2ccc(F)cc2)cc1
180 | 8100 µM | 45 µM | Cc1ccc(-n2nnnc2-c2ccc(S(C)(=O)=O)cc2)cc1
